From patent publication US6749336B2, “Ionic liquid temperature sensor” (priority 2002, dated 2004)

system: not listed separately; experiment: decomposition temperature of ionic liquids; assay type: physicochemical; conditions: 1-alkyl-pyridinium ionic liquids, Table 3, citation not given

Row | SMILES | Decomposition Temperature
1 | CCCC[n+]1ccc(C)cc1.F[P-](F)(F)(F)(F)F [[1-butyl-4-methylpyridinium] [PF6]] | 358 °C
2 | CCCC[n+]1cccc(C)c1.F[P-](F)(F)(F)(F)F [[1-butyl-3-methylpyridinium] [PF6]] | 347 °C
3 | F[P-](F)(F)(F)(F)F.c1ccc(CCCc2cc[nH+]cc2)cc1 [[4-phenylpropyl-pyridinium] [PF6]] | 163-474 °C
4 | CCCC[n+]1ccc(C)cc1.F[B-](F)(F)F [[1-butyl-4-methylpyridinium] [BF4]] | 332 °C
5 | CCCCc1ccc[nH+]c1.F[P-](F)(F)(F)(F)F [[3-n-butyl-pyridinium] [PF6]] | 125-444 °C
6 | CCCC[n+]1ccc(C)cc1.[Cl-] [[1-butyl-4-methylpyridinium] Cl] | 214 °C
7 | CCCCCC[n+]1ccc(C)cc1.[Cl-] [[1-hexyl-4-methylpyridinium] Cl] | 218 °C

system: rats; experiment: not given; conditions: acute toxicity; cited from earlier work

Row | SMILES | LD50 [mg/kg]
8 | CCCCCCOCn1cc[n+](C)c1.F[B-](F)(F)F [1-hexyloxymethyl-3-methylimidazolium tetrafluoroborate] | 1400

system: not given; experiment: not given; conditions: 1-alkyl-3-methylimidazolium ionic liquids, Table 2, literature citations a-g; cited from earlier work

Row | SMILES | Decomposition Temperature [°C]
9 | CCCn1cc[n+](C)c1.F[P-](F)(F)(F)(F)F [[C3mim] [PF6]] | 335
10 | CCCCn1cc[n+](C)c1.[I-] [[C4mim] I] | 265
11 | CCC[n+]1ccn(C)c1.[Cl-] [[C3mim] Cl] | 282
12 | CCCCCCCCn1cc[n+](C)c1.[Cl-] [[C8mim] Cl] | 243
13 | CCCCn1cc[n+](C)c1.[Cl-] [[C4mim] Cl] | 254
14 | CCCCCCn1cc[n+](C)c1.F[P-](F)(F)(F)(F)F [[C6mim] [PF6]] | 417
15 | CCCCCCn1cc[n+](C)c1.[Cl-] [[C6mim] Cl] | 253
16 | CCCCn1cc[n+](C)c1.F[P-](F)(F)(F)(F)F [[C4mim] [PF6]] | 349
